Where “and” joins values, the source holds several entries; their conditions need not be identical. Equal values may be shown once.
Molecular target: T1, synthetic thick filaments formed from purified full-length bovine β-cardiac myosin (Bos taurus, UniProt Q9BE39)
T1 construct: diluting full-length bovine cardiac myosin stock into assay buffer; from tissue; host or cells: bovine cardiac muscle (the text says isolated/purified and describes no preparation)
Experiment: mant-ATP chase single nucleotide turnover, synthetic thick filaments
Format: biochemical
Details: for Bar graph (Figure 3b, mant-ATP chase): Figure 3b source data, individual replicate values; for Representative Traces (mant-ATP chase, fluorescence signal over time): Figure 3b
Excerpt: We used systems of increasing complexity ranging from the isolated cardiac myosin motor domains (Fig. 3a) to synthetic thick filaments formed from purified full-length bovine cardiac myosin (Fig. 3b) and bovine cardiac myofibrils as substrates in the chase assays (Fig. 3c). In contrast to the isolated myosin motors, synthetic thick filaments contain two myosin head domains per molecule connected via their coiled-coil tail.
Synthetic thick filaments were freshly prepared by diluting full-length bovine cardiac myosin stock into assay buffer (composition in mmol L^−1: 15 PIPES pH 7, 5 MgCl2, 1 DTT) and incubation on ice for 2 h. Bovine myosin S1 and synthetic thick filament concentrations were adjusted to 0.4 μmol L^−1 with assay buffer and 40 μL aliquoted into individual wells of a black 384-well plate (Greiner). Mant-ATP (JenaBioscience) was added to each well to a final concentration of 0.4 μmol L^−1 using an automated injector unit in a ClarioStar Plate Reader (BMG LabTech) and the system was allowed to age for 1 min. The chase phase was started by adding a final concentration of 2 mmol L^−1 ATP using a second automated injector unit. Fluorescence intensity from each well was constantly measured for 15 min every 1 sec at 25 °C with the following settings: excitation at 360 nm with a 20 nm bandwidth and emission at 450 nm with a 20 nm bandwidth. For experiments with cardiac myofibrils the concentration was adjusted to 1 mg m L^−1, and the mant-ATP and ATP concentrations were increased to 20 μmol L^−1 and 20 mmol L^−1, respectively.

[1] = Synthetic Myosin Filaments, individual replicates

T1 sequence (Q9BE39 whole entry): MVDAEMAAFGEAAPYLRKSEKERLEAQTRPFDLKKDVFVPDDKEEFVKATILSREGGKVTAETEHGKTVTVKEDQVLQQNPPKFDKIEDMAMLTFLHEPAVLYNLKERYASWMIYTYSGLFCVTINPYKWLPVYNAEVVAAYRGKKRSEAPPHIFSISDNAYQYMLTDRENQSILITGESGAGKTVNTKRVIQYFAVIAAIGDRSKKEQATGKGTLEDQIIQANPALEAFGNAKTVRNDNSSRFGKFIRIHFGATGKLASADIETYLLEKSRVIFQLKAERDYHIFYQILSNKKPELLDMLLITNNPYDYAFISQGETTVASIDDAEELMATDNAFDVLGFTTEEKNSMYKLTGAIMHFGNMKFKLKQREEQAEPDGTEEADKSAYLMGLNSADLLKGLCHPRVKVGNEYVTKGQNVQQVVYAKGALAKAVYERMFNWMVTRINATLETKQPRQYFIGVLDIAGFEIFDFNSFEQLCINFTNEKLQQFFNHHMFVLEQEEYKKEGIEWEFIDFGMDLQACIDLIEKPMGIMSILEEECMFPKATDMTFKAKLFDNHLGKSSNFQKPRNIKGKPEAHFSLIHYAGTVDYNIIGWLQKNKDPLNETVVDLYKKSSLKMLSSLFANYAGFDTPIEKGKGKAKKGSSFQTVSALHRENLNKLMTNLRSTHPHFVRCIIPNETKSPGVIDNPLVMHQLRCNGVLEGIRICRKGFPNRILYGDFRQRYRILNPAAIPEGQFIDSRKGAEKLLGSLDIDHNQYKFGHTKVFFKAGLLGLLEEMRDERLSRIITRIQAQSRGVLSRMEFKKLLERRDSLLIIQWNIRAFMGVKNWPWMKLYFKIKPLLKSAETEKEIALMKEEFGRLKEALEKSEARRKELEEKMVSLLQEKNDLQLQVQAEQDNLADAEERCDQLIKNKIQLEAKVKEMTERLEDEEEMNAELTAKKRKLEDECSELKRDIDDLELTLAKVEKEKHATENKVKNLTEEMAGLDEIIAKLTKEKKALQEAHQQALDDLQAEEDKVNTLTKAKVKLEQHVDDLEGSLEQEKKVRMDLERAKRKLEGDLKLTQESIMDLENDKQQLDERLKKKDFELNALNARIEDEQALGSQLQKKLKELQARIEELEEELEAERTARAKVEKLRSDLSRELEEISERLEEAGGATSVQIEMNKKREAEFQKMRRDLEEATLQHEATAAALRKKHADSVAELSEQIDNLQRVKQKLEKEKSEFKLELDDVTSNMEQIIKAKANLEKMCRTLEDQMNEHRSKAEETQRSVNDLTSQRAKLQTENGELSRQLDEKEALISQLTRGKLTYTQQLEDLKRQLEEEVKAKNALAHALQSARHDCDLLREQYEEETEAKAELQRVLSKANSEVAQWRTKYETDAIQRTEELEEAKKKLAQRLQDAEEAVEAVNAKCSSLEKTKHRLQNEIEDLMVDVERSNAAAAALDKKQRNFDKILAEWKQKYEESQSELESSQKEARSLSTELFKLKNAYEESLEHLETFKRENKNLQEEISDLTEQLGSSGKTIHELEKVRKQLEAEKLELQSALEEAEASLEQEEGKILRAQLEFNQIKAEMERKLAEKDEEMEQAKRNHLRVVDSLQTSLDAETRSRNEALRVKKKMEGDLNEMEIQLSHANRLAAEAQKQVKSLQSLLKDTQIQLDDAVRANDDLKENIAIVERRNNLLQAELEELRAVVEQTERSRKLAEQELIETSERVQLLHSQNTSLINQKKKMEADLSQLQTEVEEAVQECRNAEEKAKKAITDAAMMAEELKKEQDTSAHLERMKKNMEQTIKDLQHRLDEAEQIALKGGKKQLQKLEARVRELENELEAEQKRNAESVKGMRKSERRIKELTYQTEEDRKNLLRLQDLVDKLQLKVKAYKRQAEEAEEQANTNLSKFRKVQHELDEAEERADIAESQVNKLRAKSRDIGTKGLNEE
T1 sequence (P85100 whole entry partner): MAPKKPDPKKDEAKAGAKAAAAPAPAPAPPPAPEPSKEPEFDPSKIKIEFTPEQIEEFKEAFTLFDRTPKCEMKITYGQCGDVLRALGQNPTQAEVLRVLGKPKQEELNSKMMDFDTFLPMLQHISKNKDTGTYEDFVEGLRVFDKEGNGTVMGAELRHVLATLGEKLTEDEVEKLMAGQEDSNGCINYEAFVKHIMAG
T1 sequence (Q3SZE5 whole entry partner): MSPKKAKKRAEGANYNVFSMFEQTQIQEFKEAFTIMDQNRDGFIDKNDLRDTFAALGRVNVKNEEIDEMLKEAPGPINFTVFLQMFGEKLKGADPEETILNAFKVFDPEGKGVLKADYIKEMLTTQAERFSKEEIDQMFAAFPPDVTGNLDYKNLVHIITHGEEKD

Representative Traces (mant-ATP chase, fluorescence signal over time) (t = 798 s)	Structure (SMILES)	effect on the rate of the fast DRX phase	Bar graph (Figure 3b, mant-ATP chase)	Representative Traces (mant-ATP chase, fluorescence signal over time) (t = 796 s)	Representative Traces (mant-ATP chase, fluorescence signal over time) (t = 797 s)	kfast [1]	kslow [1]	slow phase [1]	kslow (control 0.0046 ± 0.0007)	kfast (control […])	Slow Phase [%] (SRX amplitude) (control 22.9 ± 2.8)
0.08985	CC(C)n1c(=O)cc(N[C@@H](C)c2ccccc2)[nH]c1=O [Mavacamten]	no effect	77.58 and 71.76 and 78.3 and 63.78 and 62.87 and 75.77 and 68.24	0.1167	0.08985	0.1528 s⁻¹ and 0.02969 s⁻¹ and 0.09681 s⁻¹ and 0.02631 s⁻¹ and 0.06313 s⁻¹ and 0.02802 s⁻¹	0.001307 s⁻¹ and 0.001384 s⁻¹ and 0.002093 s⁻¹ and 0.003633 s⁻¹ and 0.005541 s⁻¹ and 0.004994 s⁻¹	71.76% and 78.3% and 63.78% and 62.87% and 75.77% and 68.24%	0.0033 ± 0.0007 s⁻¹	0.0593 ± 0.0188 s⁻¹	
	CCc1cc2c(=O)n(NC(=S)NC(C)C)cnc2s1 [F10]	no effect	60.72 and 53.1 and 55.77 and 61 and 84.67 and 56.52 and 70.86	0.1829	0.2272	0.05914 s⁻¹ and 0.02268 s⁻¹ and 0.03788 s⁻¹ and 0.03196 s⁻¹ and 0.0963 s⁻¹ and 0.1619 s⁻¹	0.004733 s⁻¹ and 0.003729 s⁻¹ and 0.003941 s⁻¹ and 0.001622 s⁻¹ and 0.001835 s⁻¹ and 0.001574 s⁻¹	53.1% and 55.77% and 61% and 84.67% and 56.52% and 70.86%	0.0027 ± 0.0005 s⁻¹	0.0784 ± 0.0208 s⁻¹	63.2 ± 4.2% and ~63%

Reference: article PMC10673995, “Discovery of a novel cardiac-specific myosin modulator using artificial intelligence-based virtual screening” (Nature Communications, 2023)
